Laboratory results from patent US20080051418A1, “Arylalkanoic Acid Derivative” (priority 2004, published 2008).

Experiments:
PPARγ-RXRα heterodimer = target: T1, PPARγ-RXRα heterodimer (Homo sapiens, UniProt P37231); experiment: PPARγ-RXRα heterodimer ligand activity (luciferase reporter); type: cell-based; details: PPARγ:RXRα:4ERPP/CHO-K1 cells, 18-24 hr, concentration showing 50% of the maximum induction rate
T1 construct: expressed in transfected cells; host or cells: CHO-K1
T1 sequence (P37231 1-505): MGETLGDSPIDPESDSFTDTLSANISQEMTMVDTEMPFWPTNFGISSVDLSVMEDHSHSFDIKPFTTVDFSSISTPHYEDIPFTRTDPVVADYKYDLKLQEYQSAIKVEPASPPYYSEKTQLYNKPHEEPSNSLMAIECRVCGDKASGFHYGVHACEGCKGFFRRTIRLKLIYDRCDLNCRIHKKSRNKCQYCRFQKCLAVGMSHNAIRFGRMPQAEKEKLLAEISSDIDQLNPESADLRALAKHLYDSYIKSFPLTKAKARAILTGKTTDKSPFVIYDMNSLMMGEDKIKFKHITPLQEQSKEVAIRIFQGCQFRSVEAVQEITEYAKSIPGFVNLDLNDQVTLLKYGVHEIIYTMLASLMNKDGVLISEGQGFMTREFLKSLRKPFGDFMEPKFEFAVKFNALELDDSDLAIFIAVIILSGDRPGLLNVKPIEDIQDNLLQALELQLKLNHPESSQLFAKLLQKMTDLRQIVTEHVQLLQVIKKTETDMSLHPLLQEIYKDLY
T1 sequence (P19793 1-462 partner): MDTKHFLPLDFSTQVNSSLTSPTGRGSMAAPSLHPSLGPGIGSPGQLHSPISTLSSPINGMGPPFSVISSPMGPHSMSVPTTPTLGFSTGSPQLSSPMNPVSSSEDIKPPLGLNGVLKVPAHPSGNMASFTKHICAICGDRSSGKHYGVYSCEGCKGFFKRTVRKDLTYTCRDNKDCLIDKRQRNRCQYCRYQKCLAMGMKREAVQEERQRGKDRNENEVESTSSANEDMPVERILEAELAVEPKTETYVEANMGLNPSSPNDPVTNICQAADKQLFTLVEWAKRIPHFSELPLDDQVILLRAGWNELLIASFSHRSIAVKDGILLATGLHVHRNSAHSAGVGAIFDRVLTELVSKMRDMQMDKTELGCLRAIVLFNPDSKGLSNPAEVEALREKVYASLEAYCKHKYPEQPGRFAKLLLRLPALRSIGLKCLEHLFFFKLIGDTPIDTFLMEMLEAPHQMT
Description: The PPARγ:RXRα:4ERPP/CHO-K1 cells described in WO03/099793 were cultured in a Ham F12 medium [manufactured by Life Technologies, Inc., US] containing 10% calf fetal serum [manufactured by Life Technologies, Inc., US], sown in a 96-well white plate [manufactured by Corning Coster Corporation, US] at 2×10^4 cells/well, and incubated overnight in a carbon dioxide gas incubator at 37° C.
Then, the medium was removed from the 96 well white plate, 80 μl of Ham F12 medium containing 0.1% fatty acid-free bovine serum albumin (BSA) and a test compound (20 μl) were added, and the cells were incubated for 18-24 hr in a carbon dioxide gas incubator at 37° C. The medium was removed, 40 μl of PicaGene 7.5 (manufactured by Wako Pure Chemical Industries, Ltd.) diluted 2-fold with HBSS (HANKS' BALANCED SALT SOLUTION) [manufactured by BIO WHITTAKER, US] was added. After stirring, the luciferase activity was determined using the 1420 ARVO Multilabel Counter [manufactured by PerkinElmer, US].
(§1) The induction rate was calculated from the luciferase activity of each test compound based on the luciferase activity of the test compound non-administration group as 1. The test compound concentration and the induction rate were analyzed by PRISM [manufactured by GraphPad Software, Inc., US] to calculate EC50 value (compound concentration showing 50% of the maximum value of induction rate) of the test compound.

PPARδ-RXRα heterodimer = target: T2, PPARδ-RXRα heterodimer (Homo sapiens, UniProt Q03181); experiment: PPARδ-RXRα heterodimer ligand activity (luciferase reporter); type: cell-based; details: transformant of Reference Example 9a of WO03/099793, 36-48 hr, concentration showing 50% of the maximum induction rate
T2 construct: expressed in transfected cells
T2 sequence (Q03181 1-441): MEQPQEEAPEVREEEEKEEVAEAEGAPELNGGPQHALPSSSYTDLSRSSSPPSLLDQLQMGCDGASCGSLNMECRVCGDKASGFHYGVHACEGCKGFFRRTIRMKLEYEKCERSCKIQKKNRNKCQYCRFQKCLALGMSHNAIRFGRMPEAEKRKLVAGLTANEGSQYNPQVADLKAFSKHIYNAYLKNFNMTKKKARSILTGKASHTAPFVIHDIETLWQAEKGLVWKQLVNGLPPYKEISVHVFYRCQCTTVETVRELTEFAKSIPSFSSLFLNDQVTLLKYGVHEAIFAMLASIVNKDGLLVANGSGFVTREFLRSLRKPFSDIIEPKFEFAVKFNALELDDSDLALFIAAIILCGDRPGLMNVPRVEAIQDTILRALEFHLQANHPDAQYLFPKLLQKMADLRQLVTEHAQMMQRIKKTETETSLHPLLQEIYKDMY
T2 sequence (P19793 1-462 partner): T1 sequence (P19793 1-462 partner)
Description: The transformant described in Reference Example 9a of WO03/099793 was suspended in a DMEM medium [manufactured by Life technologies, Inc., US] containing 0.1% fatty acid-free bovine serum albumin (BSA) (manufactured by Wako Pure Chemical Industries, Ltd.), and inoculated to each well of a 96 well white plate [manufactured by Corning Coster Corporation, US] by 80 μl to 1×10^4 cells/well. Then, the test compound (20 μl) was added, and cultured under the conditions of 37° C., 5% CO2 for 36-48 hr. The medium was removed from the 96 well white plate, 40 μl of PicaGene LT 7.5 (manufactured by Wako Pure Chemical Industries, Ltd.) diluted 2-fold with HBSS (HANKS' BALANCED SALT SOLUTION) [manufactured by BIO WHITTAKER, US] was added and, after stirring, the luciferase activity was determined using the 1420 ARVO Multilabel Counter [manufactured by PerkinElmer, US].
as §1

## COc1cccc(CC(=O)O)c1OCCCc1cc(OC(C)C)nn1Cc1ccc(C(F)(F)F)cc1Cl [Example 66, [2-(3-{1-[2-chloro-4-(trifluoromethyl)benzyl]-3-isopropoxy-1H-pyrazol-5-yl}propoxy)-3-methoxyphenyl]acetic acid]
PPARγ-RXRα heterodimer
  EC50: 1.2 nM
other
  melting point: 98 to 99 °C
PPARδ-RXRα heterodimer
  EC50: 2.8 nM

## COc1cccc(CC(=O)O)c1OCCCc1cc(OC(C)C)nn1Cc1ccc(Cl)cc1C [Example 68, (2-{3-[1-(4-chloro-2-methylbenzyl)-3-isopropoxy-1H-pyrazol-5-yl]propoxy}-3-methoxyphenyl)acetic acid]
PPARγ-RXRα heterodimer
  EC50: 6 nM
other
  melting point: 108 to 109 °C
PPARδ-RXRα heterodimer
  EC50: 74 nM

## CCCOc1cc(Oc2ccc(C(F)(F)F)cn2)ccc1CCCOc1c(CC(=O)O)cccc1OC [Example 102, {2-[3-(2-propoxy-4-{[5-(trifluoromethyl)pyridin-2-yl]oxy}phenyl)propoxy]-3-methoxyphenyl}acetic acid]
PPARδ-RXRα heterodimer
  EC50: 54 nM

## COCOc1ccc(CCCOc2nn(Cc3ccccc3)cc2CC(=O)O)c(Oc2ncc(C(F)(F)F)cc2Cl)c1 [Example 112, (3-{3-[2-{[3-chloro-5-(trifluoromethyl)pyridin-2-yl]oxy}-4-(methoxymethoxy)phenyl]propoxy}-1-benzyl-1H-pyrazol-4-yl)acetic acid]
PPARγ-RXRα heterodimer
  EC50: 0.57 nM
other
  melting point: 108 to 109 °C
PPARδ-RXRα heterodimer
  EC50: 57 nM

## CCCOc1ccc(CCCOc2nn(C)cc2CC(=O)O)c(Oc2ncc(C(F)(F)F)cc2Cl)c1 [Example 113, {3-[3-(2-{[3-chloro-5-(trifluoromethyl)pyridin-2-yl]oxy}-4-propoxyphenyl)propoxy]-1-methyl-1H-pyrazol-4-yl}acetic acid]
PPARδ-RXRα heterodimer
  EC50: 44 nM

## CCCOc1ccc(CCCOc2nn(Cc3ccccc3)cc2CC(=O)O)c(Oc2ncc(C(F)(F)F)cc2Cl)c1 [Example 114, {3-[3-(2-{[3-chloro-5-(trifluoromethyl)pyridin-2-yl]oxy}-4-propoxyphenyl)propoxy]-1-benzyl-1H-pyrazol-4-yl}acetic acid]
PPARδ-RXRα heterodimer
  EC50: 25 nM

## COc1cccc(CC(=O)O)c1OCCCc1ccc(OC(C)C)cc1Oc1ncc(C(F)(F)F)cc1Cl [Example 115, {2-[3-(2-{[3-chloro-5-(trifluoromethyl)pyridin-2-yl]oxy}-4-isopropoxyphenyl)propoxy]-3-methoxyphenyl}acetic acid]
PPARδ-RXRα heterodimer
  EC50: 2.5 nM

## CC(C)Oc1ccc(CCCOc2nn(C)cc2CC(=O)O)c(Oc2ncc(C(F)(F)F)cc2Cl)c1 [Example 116, {3-[3-(2-{[3-chloro-5-(trifluoromethyl)pyridin-2-yl]oxy}-4-isopropoxyphenyl)propoxy]-1-methyl-1H-pyrazol-4-yl}acetic acid]
PPARγ-RXRα heterodimer
  EC50: 1.6 nM
PPARδ-RXRα heterodimer
  EC50: 9.3 nM

## CC(C)Oc1ccc(CCCOc2nn(Cc3ccccc3)cc2CC(=O)O)c(Oc2ncc(C(F)(F)F)cc2Cl)c1 [Example 118, {3-[3-(2-{[3-chloro-5-(trifluoromethyl)pyridin-2-yl]oxy}-4-isopropoxyphenyl)propoxy]-1-benzyl-1H-pyrazol-4-yl}acetic acid]
PPARγ-RXRα heterodimer
  EC50: 0.75 nM
PPARδ-RXRα heterodimer
  EC50: 9.2 nM

## COc1cccc(CC(=O)O)c1OCCCc1ccc(OC(C)C)cc1Oc1ncc(Cl)cc1Cl [Example 119, [2-(3-{2-[(3,5-dichloropyridin-2-yl)oxy]-4-isopropoxyphenyl}propoxy)-3-methoxyphenyl]acetic acid]
other
  melting point: 92 to 93 °C
PPARδ-RXRα heterodimer
  EC50: 39 nM

## CCn1cc(CC(=O)O)c(OCCCc2ccc(OC(C)C)cc2Oc2ncc(Cl)cc2Cl)n1 [Example 120, [3-(3-{2-[(3,5-dichloropyridin-2-yl)oxy]-4-isopropoxyphenyl}propoxy)-1-ethyl-1H-pyrazol-4-yl]acetic acid]
PPARγ-RXRα heterodimer
  EC50: 3.3 nM
PPARδ-RXRα heterodimer
  EC50: 23 nM

## CC(C)Oc1ccc(CCCOc2ncccc2CC(=O)O)c(Oc2ncc(Cl)cc2Cl)c1 [Example 121, [2-(3-{2-[(3,5-dichloropyridin-2-yl)oxy]-4-isopropoxyphenyl}propoxy)pyridin-3-yl]acetic acid]
PPARγ-RXRα heterodimer
  EC50: 3.3 nM
other
  melting point: 84 to 85 °C
PPARδ-RXRα heterodimer
  EC50: 7.6 nM

## CC(C)Oc1ccc(CCCOc2nn(C)cc2CC(=O)O)c(Oc2ncc(Cl)cc2Cl)c1 [Example 132, [3-(3-{2-[(3,5-dichloropyridin-2-yl)oxy]-4-isopropoxyphenyl}propoxy)-1-methyl-1H-pyrazol-4-yl]acetic acid]
PPARγ-RXRα heterodimer
  EC50: 11 nM
PPARδ-RXRα heterodimer
  EC50: 88 nM

## CC(C)Oc1ccc(CCCOc2cc(CCC(=O)O)n(-c3ccccc3)n2)c(Oc2ncc(Cl)cc2Cl)c1 [Example 138, 3-[3-(3-{2-[(3,5-dichloropyridin-2-yl)oxy]-4-isopropoxyphenyl}propoxy)-1-phenyl-1H-pyrazol-5-yl]propanoic acid]
PPARγ-RXRα heterodimer
  EC50: 1.2 nM
PPARδ-RXRα heterodimer
  EC50: 4 nM

## CC(C)Oc1ccc(CCCOc2cc(CCC(=O)O)n(C)n2)c(Oc2ncc(C(F)(F)F)cc2Cl)c1 [Example 139, 3-{3-[3-(2-{[3-chloro-5-(trifluoromethyl)pyridin-2-yl]oxy}-4-isopropoxyphenyl)propoxy]-1-methyl-1H-pyrazol-5-yl}propanoic acid]
PPARγ-RXRα heterodimer
  EC50: 9 nM
other
  melting point: 88 to 89 °C
PPARδ-RXRα heterodimer
  EC50: 17 nM

## CC(C)Oc1ccc(CCCOc2cc(CCC(=O)O)n(C(C)C)n2)c(Oc2ncc(C(F)(F)F)cc2Cl)c1 [Example 142, 3-{3-[3-(2-{[3-chloro-5-(trifluoromethyl)pyridin-2-yl]oxy}-4-isopropoxyphenyl)propoxy]-1-isopropyl-1H-pyrazol-5-yl}propanoic acid]
PPARγ-RXRα heterodimer
  EC50: 7 nM
other
  melting point: 127.5 to 128.5 °C
PPARδ-RXRα heterodimer
  EC50: 14 nM

## CC(C)Cn1nc(OCCCc2ccc(OC(C)C)cc2Oc2ncc(C(F)(F)F)cc2Cl)cc1CCC(=O)O [Example 143, 3-{3-[3-(2-{[3-chloro-5-(trifluoromethyl)pyridin-2-yl]oxy}-4-isopropoxyphenyl)propoxy]-1-isobutyl-1H-pyrazol-5-yl}propanoic acid]
PPARγ-RXRα heterodimer
  EC50: 1.4 nM
other
  melting point: 71 to 73 °C
PPARδ-RXRα heterodimer
  EC50: 11 nM
